The values below are quoted from earlier work in patent US20110301091A1, “COMPOSITIONS AND METHODS FOR REDUCING THE SIGNS OF AGING OF THE SKIN” (priority 2008, published 2011).

The test system of one series is MMP-1. Particulars: human keratinocytes; via ERK and AP-1 inhibition.
Series [1] relates to UV-irradiated human fibroblasts.
For series [2], the system named is UV-induced ceramide production. Particulars: free radical scavenger.
The subject of a further series is dermal aging. The settings on record: animal studies; mechanism of reducing oxidative stress and apoptosis.
The test system of another series is photoaged skin. Particulars: topical application.
For another series, the system named is skin characteristics. Particulars: in vivo.
In a further series the test system is photoaging. The settings on record: topical application of folic acid and creatine.
Series [3] concerns heparan-sulfate PGs (HS-PGs). The settings on record: organotypical model of corticosteroid atrophic human skin.
The test system of a further series is wrinkle formation. The settings on record: clinical study.

Consider Triphlorethol-A, for which the MMP-1 inhibition entry with MMP-1 is “inhibition of MMP-1”.
For the compound `COc1cc(O)c(C(=O)[C@@H]2[C@H](CC=C(C)C)C(C)=CC[C@H]2c2ccccc2)c(O)c1` [Panduratin A], in series [1], the “matrix metalloproteinase (MMP) I synthesis” value is reported as “decreased” and the “type I procollagen synthesis” value is recorded as “increased”.
Vitamin E: the UV-induced ceramide production result in series [2] is listed as “inhibited”.
For `COc1ccc2[nH]cc(CCNC(C)=O)c2c1` [melatonin], the dermal aging entry with dermal aging is recorded as “slow down dermal aging”.
In the case of `Oc1ccc(C=Cc2cc(O)cc(O)c2)cc1` [Resveratrol], the aging and lifespan result in the series with laboratory animals is “slow down aging and extend the lifespan”.
`CCCCCCCC(=O)C(CCCCCC)C(=O)NC(CO)CO` (stereo not drawn) [K6PC-5]: in the series on photoaged skin, the “skin barrier, fibroblast count and function” value is “improving skin barrier and increasing fibroblast count and function”.
With lunasin, in the series with epigenetic patterns, the epigenetic patterns result is reported as “modify epigenetic patterns”.
Turning to `C[C@]12CC[C@H](O)CC1=CC[C@@H]1[C@@H]2CC[C@]2(C)C(=O)CC[C@@H]12` [Dehydroepiandrosterone (DHEA), Dehydroepiandrosterone], the “effects on skin characteristics” value in the series on skin characteristics was “beneficial effects on skin characteristics”.
On to `Nc1nc2ncc(CNc3ccc(C(=O)N[C@@H](CCC(=O)O)C(=O)O)cc3)nc2c(=O)[nH]1` [folic acid], for which the photoaging entry in the series on photoaging is on record as “improved photoaging”.
Turning to growth hormone, the dermal aging entry in the series on dermal aging is “slow down dermal aging”.
Regarding C-Xyloside, the “expression of heparan-sulfate PGs (HS-PGs)” value in [3] is reported as “improved expression of heparan-sulfate PGs”.
For the compound `CN(CC(=O)O)C(=N)N` [creatine], the photoaging result in the series with photoaging is recorded as “improved photoaging”.
Ziyuglycoside: the “expression of type I collagen” value with type I collagen is given as “increased the expression of type I collagen in a dose-dependent manner”. In addition, the wrinkle formation entry in the series with wrinkle formation was “decrease wrinkle formation”.
